Reference: patent US12076331B2, “Inositol derivatives for use in pathological crystallization” (ETH Zurich, priority 2015, dated 2024)

Tests used:
[1] = tested on: RPTEC/TERT 1 human proximal tubule cells; assay: Imaging assay of CaP adhesion/deposition and cellular changes on RPTEC monolayers; assay type: cell-based
From the text: (A) Heatmap and hierarchical clustering of extracted image features. (B) Selected single features describing cellular changes upon increasing (OEG2)2-IP4 concentrations are depicted. Total cell count, dead cell count, single cell area and single cell solidity, a measure of cell compactness, are shown. (C) Selected single features describing changes in the CaP deposition and membrane pattern upon increasing (OEG2)2-IP4 concentrations are depicted. The total area of the binary calcein staining, colorimetric quantification of calcium content extracted from the monolayer, the maximum intensity of the calcein fluorescence, structural similarity index metric (SSIM) and the correlation of the CellMask channel image are shown. (D) Example brightfield, calcein, CellMask and EthD channel images and two zoomed-in regions of interests (ROI) of RPTEC treated with 13 μM (OEG2)2-IP4 are shown. Mean scaled values per individual experiment are plotted (N=3). Pos.ctrl presents treatment with 5/7 mM Ca/P, neg.ctrl presents medium without Ca/P spiking (=1/1 mM Ca/P present in normal cell medium). Mean of three individual experiments and SD is plotted as grey horizontal and vertical line respectively, one-way ANOVA with Dunnet's multiple comparison between each concentration to pos. ctrl was performed (* p<0.01).
RPTEC/TERT 1 monolayers at confluence were treated with medium spiked with 7 mM disodium phosphate, 5 mM calcium chloride and compound and were incubated for 24 h. The amount of CaP deposits and the extent of cell injury were detected by calcein and EthD staining, respectively. Fluorescence images were quantified using Matlab. Quantification of the area covered with CaP deposition on RPTEC monolayers with (A) OEG2-IP5, (B) OEG11-IP5, (C) (OEG2)2-IP4, and (D) OEG8-(IP5)2 treatment. (N=3, mean+SD, one-way ANOVA with Dunnett's multiple comparison, * p<0.05, ** p<0.01, *** p<0.001).
RPTEC/TERT 1 human proximal tubule cells (RPTEC) were cultured in T75 tissue culture flasks using ProxUp basal medium mixed with ProxUp supplements at 37° C. and 5% CO2 according to manufacturer's recommendations. Cells were used up to passage 30 and regularly tested for Mycoplasma infections. For experiments, RPTEC were cultured in 24-well plates at a seeding density of 150′000 cells/cm^2. Cell viability assessment and cell counting before seeding was performed using an automated cell counter (BioRad TC 20, Hercules, CA, USA).
For the comparison of selected IP6 analogues, ProxUp basal medium was prepared with the selected inhibitor and added to each well. Then, CaP precipitation was induced by direct addition of first, phosphate and second, calcium. Final concentrations of 7 mM phosphate and 5 mM calcium were used. Cells were incubated for 24 h at 37° C. and 5% CO2. Spiked medium was removed, and cells were washed twice with PBS before staining.
(§1) For staining, ProxUp basal medium was mixed with calcein (500 nM final concentration), EthD (6 μM final concentration), CellMask stain ([…]) and Hoechst 33342. Staining mixture was added to RPTEC and cells were incubated for 30 min in the dark at 37° C. and 5% CO2. Staining solution was removed, cells were washed with PBS once and ProxUp basal medium was added. Cells were immediately imaged after staining. Images were obtained by epifluorescence microscopy at 37° C., using a Leica CTR6000 microscope. For quantification 3 wells/condition were prepared and 3 images/well were taken. For preliminary adhesion experiments images were taken with a 10× objective, for the imaging assay 20× objective images were taken.
Multichannel images were saved as individual channel images in 8-bit tiff format. For analysis Hoechst channel images were thresholded using the triangle threshold. Touching nuclei of the binary image were further segmented using the watershed algorithm with the distance transform of the binary image as input and local maxima thereof as seeds. […]

[2] = tested on: RPTEC/TERT 1 human proximal tubule cells; assay: CaP-induced CaOx crystallization on RPTEC monolayers; assay type: cell-based; conditions: CaP-induced model, 1.2 mM oxalate, 4 h
Description: For the assessment of CaP-induced CaOx crystallization, after 24 h of incubation, Ca/P spiked medium was removed, and cells were washed twice with PBS. Subsequently, medium containing 1.2 mM oxalate and compound was added to each well. After 4 h of incubation at 37° C. and 5% CO2 treatment was removed, and cells washed once with PBS before staining.
as §1, with “Images were obtained by epifluorescence microscopy at 37° C., using a Leica CTR6000 microscope.” left out, “For preliminary adhesion experiments images were taken with a 10× objective, for the imaging assay 20× objective images were taken.” left out
To allow rapid profiling of molecules for their effects on diverse kidney calcification processes, the inventors developed a cell-based assay that allowed the monitoring of CaP deposition, as well as cellular changes associated with it. Therefore, the inventors utilized monolayers of renal proximal tubular cells (RPTEC) stained with various dyes to quantify calcification and cell morphology changes (FIG. 3). […] CaP deposits were detected via calcein staining (FIG. 3B). […]

[3] = 6-50 μM, 5/7 mM Ca/P, compared to the positive ctrl
[4] = RPTEC, 7 mM phosphate, 5 mM calcium, 24 h

## COCCOCCO[C@@H]1C(OP(=O)(O)O)[C@H](OCCOCCOC)[C@@H](OP(=O)(O)O)C(OP(=O)(O)O)[C@H]1OP(=O)(O)O (stereo partly drawn) [(OEG2)2-IP4]
[1]; [3]
  number of dead cells: dose-dependently reduced
  single cell area: dose-dependently reduced
  single cell solidity: increased
  total cell count/field of view: increased
[1]; 6 and 13 μM, 5/7 mM Ca/P, compared to the positive ctrl
  total CaP area: reduction
[1]; [4]
  concentration achieving complete inhibition of CaP adhesion: 50 µM
  concentration down to which CaP adhesion was drastically reduced: 12.5 µM
[2]
  CaP-induced CaOx crystallization: reduced
  concentration at which COD was almost entirely abolished: 100 µM
